Laboratory results published in patent US12612412B2, “Antiviral heterocyclic compounds” (Enanta Pharmaceuticals, Inc., priority 2021, dated 2026).
pEC50: −log10 of the molar value.

How the values were obtained:
[1] = tested on: recombinant HMPV CAN97-83 containing eGFP (MPV-GFP1); assay: HMPV antiviral assay Method-A (MPV-GFP1 eGFP fluorescence in Vero E6 cells); format: cell-based, Human metapneumovirus (HMPV); conditions: human metapneumovirus, Vero C1008, 120 h, read-out: HMPV EC50
Experimental: HMPV antiviral activity was evaluated using a recombinant version of HMPV CAN97-83 engineered to contain the coding sequence for enhanced green fluorescence protein (eGFP) in the 3′ end of the virus genome (MPV-GFP1, ViraTree). Vero E6 cells ([…]) were seeded at a density of 12,000 cells/100 μL/well into 96-well cell plates one day prior to the assay. On the day of screening, the cell culture medium was aspirated from the wells and cells were washed twice with serum-free Eagle's Modified Essential Medium (EMEM, ATCC #) containing 1% penicillin-streptomycin (Invitrogen) (SF-EMEM). Cell washes were performed by dispensing 100 μL SF-EMEM per well and immediately aspirating the wash medium from the well. Following the second wash step, serum-free OptiMEM (Invitrogen, Cat No.) (SF-OptiMEM) containing 0.5 μg/mL TPCK-Trypsin (VENDOR) and 1% penicillin-streptomycin was added to the cells at 50 μL/well. Compounds were added into the 96-well plates using a JANUS automated liquid handling system (VENDOR). Compounds were initially diluted 1:50 into an intermediate 96-well plate containing SF-OptiMEM prior to transfer to the assay plate (25 μL/well). Each of the test compounds were tested in duplicate wells at final concentrations starting from 8 μM or 2 μM using ½ stepwise dilutions for a total of 8 points. Virus infection was performed by preparing a working stock of MPV-GFP1 at a multiplicity of infection (MOI) equal to 0.05/25 μL and aliquoting 25 μL of virus inoculum to the compound and positive control wells. SF-OptiMEM was added (25 μL/well) to the appropriate wells to serve as a virus-free negative control for the assay. The final DMSO concentration of all wells is 0.5%. Plates were incubated at 32° C., 5% CO2 for 5 days.
After 5 days incubation, eGFP fluorescence intensity was measured at (X) […] wavelength using a Spectramax i3× plate reader (VENDOR). Percent viral inhibition was calculated using the following equation: y=[…]
Where XQ is the fluorescence intensity measured in a well containing recombinant MPV-GFP1-infected, compound-treated cells and XP is the average fluorescence intensity measured in the wells containing untreated cells infected with recombinant virus. EC50 values were then calculated by non-linear regression using a four parameter curve logistic equation. The curve fit model employed was XLFit Dose Response One Site Model 200: y=(A+(B/(1+((x/C)^D))))
Where A is the minimum y value, B is the maximum y value, C is the log EC50 value, and D is the slope factor. […] EC50 ranges are as follows: A<0.5 μM; B>0.5 μM.

[2] = tested on: genotype A, "Long" strain RSV; assay: RSV-A assay (CPE protection in Hep-2 cells, ATPlite readout); format: cell-based, Human respiratory syncytial virus (HRSV); conditions: human respiratory syncytial virus, genotype A “Long” strain RSV, MOI 0.1, CPE protection, read-out: Human RSV-A (“Long”)
Method in brief: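 Hep-2 cells (8,000/well) infected with RSV Long strain at MOI 0.1 in the presence of 2-fold compound dilutions in duplicate. After 5 days, cell viability measured by ATPlite luminescence, normalized between virus-only and uninfected cell controls; EC50 reported.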

Work on Cc1cnc2c(NC(N)=O)cc(C(=O)NC[C@](O)(c3cc4c(c(-c5ccc(F)cc5)n3)OC[C@]4(C)C(N)=O)C(F)(F)F)cc2c1 [Example 223] yielded a pEC50 [1] of under 6.30 and a pEC50 [2] of over 6.70.

C[C@]1(C(N)=O)COc2c1cc([C@@](O)(CNC(=O)c1cc(Cl)c3nn(C(F)F)cc3c1)C(F)(F)F)nc2-c1ccc(F)cc1 [Example 42] showed a pEC50 [1] of over 6.30 and a pEC50 [2] of over 6.70.

C[C@]1(C(N)=O)COc2c1cc([C@@](O)(CNC(=O)c1cc(Cl)c3nn(C(F)F)cc3c1)C(F)(F)F)nc2-c1ccc(F)c(Cl)c1 [Example 44] was tested, and the pEC50 [1] was over 6.30 and the pEC50 [2] was over 6.70.

COc1cc(C(=O)NC[C@](O)(c2cc3c(c(-c4ccc(F)cc4)n2)OC[C@]3(C)C(N)=O)C(F)(F)F)cc2cc(C3CC3)nnc12 [Example 81] gave a pEC50 [1] of under 6.30 and a pEC50 [2] of over 6.70.

Work on Cc1cc2cc(C(=O)NC[C@](O)(c3cc4c(c(-c5ccc(F)cc5)n3)OC[C@]4(C)C(N)=O)C(F)(F)F)cc(OC(F)(F)F)c2nc1C [Example 179] yielded a pEC50 [1] of under 6.30 and a pEC50 [2] of over 6.70.

In the case of COc1cc(C(=O)NC[C@](O)(c2cc3c(c(-c4ccc(F)cc4)n2)OC[C@]3(C)C(N)=O)C(F)(F)F)cc2sc(C3CC3)nc12 [Example 17], the pEC50 [1] was over 6.30 and the pEC50 [2] was over 6.70.

C[C@]1(C(N)=O)COc2c1cc([C@@](O)(CNC(=O)c1cc(F)c3nc(CF)cn3c1)C(F)(F)F)nc2-c1ccc(F)cc1 [Example 63] gave a pEC50 [1] of under 6.30 and a pEC50 [2] of over 6.70.

COc1cc(C(=O)NC[C@](O)(c2cc3c(c(-c4ccc(F)cc4)n2)OC[C@]3(C)C(N)=O)C(F)(F)F)cc2cc(CF)c(C)nc12 [Example 147] was tested, and the pEC50 [1] was over 6.30 and the pEC50 [2] was over 6.70.

With CCc1nc2ccc(C(=O)NC[C@](O)(c3cc4c(c(-c5ccc(F)cc5)n3)OC[C@]4(C)C(N)=O)C(F)(F)F)cc2s1 [Example 11] the pEC50 [1] was under 6.30 and the pEC50 [2] was over 6.70.

Molecule C[C@]1(C(N)=O)COc2c1cc([C@@](O)(CNC(=O)c1cc(F)c3nn(C(F)F)cc3c1)C(F)(F)F)nc2-c1ccc(F)cc1 [Example 43] has a pEC50 [1] of over 6.30 and a pEC50 [2] of over 6.70.

Work on COc1cc(C(=O)NC[C@](O)(c2cc3c(c(-c4ccc(F)cc4)n2)OC[C@]3(C)C(N)=O)C(F)(F)F)cn2cc(C3CC3)nc12 [Example 217] yielded a pEC50 [1] of over 6.30 and a pEC50 [2] of over 6.70.

Work on C[C@]1(C(N)=O)COc2c1cc([C@@](O)(CNC(=O)c1cc(C3CC3)c3nn(C(F)F)cc3c1)C(F)(F)F)nc2-c1ccc(F)c(Cl)c1 [Example 48] yielded a pEC50 [1] of over 6.30 and a pEC50 [2] of over 6.70.

With COc1cc(C(=O)NC[C@](O)(c2cc3c(c(-c4ccc(F)c(Cl)c4)n2)OC[C@]3(C)C(N)=O)C(F)(F)F)cc2cc(C3CC3)nn12 [Example 32] the pEC50 [1] was over 6.30 and the pEC50 [2] was over 6.70.

Molecule [2H]C([2H])([2H])c1cc(C(=O)NC[C@](O)(c2cc3c(c(-c4ccc(F)cc4)n2)OC[C@]3(C)C(N)=O)C(F)(F)F)cc2cn[nH]c12 [Example 128] has a pEC50 [1] of over 6.30 and a pEC50 [2] of over 6.70.

For COc1cc(C(=O)NC[C@](O)(c2cc3c(c(-c4ccc(F)cc4)n2)OC[C@@]3(C(N)=O)C2CC2)C(F)(F)F)cc2cn(C(F)F)nc12 [Example 267], the pEC50 [1] was over 6.30 and the pEC50 [2] was over 6.70.

C[C@]1(C(N)=O)COc2c1cc([C@@](O)(CNC(=O)c1cc(Cl)c3[nH]ccc3c1)C(F)(F)F)nc2-c1ccc(F)cc1 [Example 199] was tested, and the pEC50 [1] was under 6.30 and the pEC50 [2] was over 6.70.

Work on C[C@H](N)C(=O)Nc1nc2ccc(C(=O)NC[C@](O)(c3cc4c(c(-c5ccc(F)cc5)n3)OC[C@]4(C)C(N)=O)C(F)(F)F)cc2s1 [Example 153] yielded a pEC50 [1] of under 6.30 and a pEC50 [2] of over 6.70.

With C[C@]1(C(N)=O)COc2c1cc([C@@](O)(CNC(=O)c1cc(F)c3nc(N)sc3c1)C(F)(F)F)nc2-c1ccc(C#N)cc1 [Example 309] the pEC50 [1] was under 6.30 and the pEC50 [2] was over 6.70.

In the case of Cn1cc2cc(C(=O)NC[C@](O)(c3cc4c(c(-c5ccc(F)cc5)n3)OC[C@]4(C)C(N)=O)C(F)(F)F)cc(F)c2n1 [Example 22], the pEC50 [1] was over 6.30 and the pEC50 [2] was over 6.70.

Cn1cc2cc(C(=O)NC[C@](O)(c3cc4c(c(-c5ccc(F)cc5)n3)OC[C@]4(C)C(N)=O)C(F)(F)F)cc(OC3CC3)c2n1 [Example 27] showed a pEC50 [1] of over 6.30 and a pEC50 [2] of over 6.70.

With NC(=O)[C@@]1(C2CC2)COc2c1cc([C@@](O)(CNC(=O)c1cc(OC3CC3)c3ncccc3c1)C(F)(F)F)nc2-c1ccc(F)cc1 [Example 270] the pEC50 [1] was over 6.30 and the pEC50 [2] was over 6.70.

With COc1cc(C(=O)NC[C@](O)(c2cc3c(c(-c4ccc(F)cc4)n2)OC[C@]3(C)C(N)=O)C(F)(F)F)cc2ccnnc12 [Example 6] the pEC50 [1] was over 6.30 and the pEC50 [2] was over 6.70.

With C[C@]1(C(N)=O)COc2c1cc([C@@](O)(CNC(=O)c1ccc3nc(NC(=O)[C@@H]4CCCN4)sc3c1)C(F)(F)F)nc2-c1ccc(F)cc1 [Example 160] the pEC50 [1] was under 6.30 and the pEC50 [2] was over 6.70.

For COc1cc(C(=O)NC[C@](O)(c2cc3c(c(-c4ccc(F)cc4)n2)OC[C@]3(C)C(N)=O)C(F)(F)F)cc2cc(C(F)F)c(C)nc12 [Example 148], the pEC50 [1] was over 6.30 and the pEC50 [2] was over 6.70.

COc1cc(C(=O)NC[C@](O)(c2cc3c(c(-c4ccc(F)cc4)n2)OC[C@]3(C)C(N)=O)C(F)(F)F)cn2cc(C(F)F)nc12 [Example 64] was tested, and the pEC50 [1] was under 6.30 and the pEC50 [2] was over 6.70.

For COc1cc(C(=O)NC[C@](O)(c2cc3c(c(-c4ccc(F)cc4)n2)OC[C@]3(C)C(N)=O)C(F)(F)F)cc2cn(C3CCC3)nc12 [Example 323], the pEC50 [1] was under 6.30 and the pEC50 [2] was over 6.70.

COc1ccc(Nc2cc(C(=O)NC[C@](O)(c3cc4c(c(-c5ccc(F)cc5)n3)OC[C@]4(C)C(N)=O)C(F)(F)F)cc3cc(C)cnc23)nn1 [Example 121] showed a pEC50 [1] of over 6.30 and a pEC50 [2] of over 6.70.

C[C@]1(C(N)=O)COc2c1cc([C@@](O)(CNC(=O)c1ccc3nc(C(F)(F)F)cn3c1)C(F)(F)F)nc2-c1ccc(F)cc1 [Example 54] was tested, and the pEC50 [1] was under 6.30 and the pEC50 [2] was over 6.70.

For C[C@]1(C(N)=O)COc2c1cc([C@@](O)(CNC(=O)c1ccc3nnc(C4CC4)cc3c1)C(F)(F)F)nc2-c1ccc(F)cc1 [Example 7], the pEC50 [1] was over 6.30 and the pEC50 [2] was over 6.70.

In the case of COc1cc(C(=O)NC[C@](O)(c2cc3c(c(-c4ccc(F)c(Cl)c4)n2)OC[C@]3(C)C(N)=O)C(F)(F)F)cc2cc(C3CC3)nnc12 [Example 86], the pEC50 [1] was over 6.30 and the pEC50 [2] was over 6.70.

For C[C@]1(C(N)=O)COc2c1cc([C@@](O)(CNC(=O)c1ccc3nn(C4CC4)cc3c1)C(F)(F)F)nc2-c1ccc(F)cc1 [Example 170], the pEC50 [1] was over 6.30 and the pEC50 [2] was over 6.70.

C[C@]1(C(N)=O)COc2c1cc([C@@](O)(CNC(=O)c1cc(F)c3nn(C4CC4)cc3c1)C(F)(F)F)nc2-c1ccc(F)c(Cl)c1 [Example 29] was tested, and the pEC50 [1] was over 6.30 and the pEC50 [2] was over 6.70.

With C[C@]1(C(N)=O)COc2c1cc([C@@](O)(CNC(=O)c1cc(NC(=O)N3CCC3)c3ncc(Cl)cc3c1)C(F)(F)F)nc2-c1ccc(F)cc1 [Example 222] the pEC50 [1] was under 6.30 and the pEC50 [2] was over 6.70.

Work on C[C@]1(C(N)=O)COc2c1cc([C@@](O)(CNC(=O)c1cc(Cl)c3nn(C4CC4)cc3c1)C(F)(F)F)nc2-c1ccc(F)cc1 [Example 84] yielded a pEC50 [1] of over 6.30 and a pEC50 [2] of over 6.70.

Cc1n[nH]c2ccc(C(=O)NC[C@](O)(c3cc4c(c(-c5ccc(F)cc5)n3)OC[C@]4(C)C(N)=O)C(F)(F)F)cc12 [Example 100] showed a pEC50 [1] of under 6.30 and a pEC50 [2] of over 6.70.

COc1cc(C(=O)NC[C@](O)(c2cc3c(c(-c4ccc(F)cc4)n2)OC[C@]3(C)C(N)=O)C(F)(F)F)cc2cc(C3CC3)nn12 [Example 92] gave a pEC50 [1] of over 6.30 and a pEC50 [2] of over 6.70.

C[C@]1(C(N)=O)COc2c1cc([C@@](O)(CNC(=O)c1ccc3nc(C(F)F)sc3c1)C(F)(F)F)nc2-c1ccc(F)cc1 [Example 141] gave a pEC50 [1] of under 6.30 and a pEC50 [2] of over 6.70.

For C[C@]1(C(N)=O)COc2c1cc([C@@](O)(CNC(=O)c1ccc3nc(C4CC4)cn3c1)C(F)(F)F)nc2-c1ccc(F)cc1 [Example 51], the pEC50 [1] was over 6.30 and the pEC50 [2] was over 6.70.

C[C@]1(C(N)=O)COc2c1cc([C@@](O)(CNC(=O)c1cc(OC3CC3)c3nn(C4CC4)cc3c1)C(F)(F)F)nc2-c1ccc(F)cc1 [Example 26] gave a pEC50 [1] of over 6.30 and a pEC50 [2] of over 6.70.
